Experimental data reported in US20240426776A1, “RAPID DIFFERENTIATION OF ANTIBIOTIC-SUSCEPTIBLE AND -RESISTANT BACTERIA THROUGH MEDIATED EXTRACELLULAR ELECTRON TRANSFER” (priority 2021, published 2024).
Values joined by “and” are separate entries in the source; they are usually repeats but may differ in a detail not shown here. Equal values may be shown once. Read-outs that look alike come from different tables or passages of the source.

How the values were obtained:
[1] = test system: Staphylococcus aureus (strains 29213 and 43300); conditions: cited from earlier work
[2] = test system: Escherichia coli (strains 61 and 77); conditions: cited from earlier work
[3] = test system: Klebsiella pneumoniae (strains 34 and 115); conditions: for ASIn (antibiotic susceptibility index), single replicates: imipenem 20× breakpoint (80 μg/mL), ASI20, 15 μM PMS, 0.1 OD600
Protocol: For initial quality control, cyclic voltammetry scan was recorded from 0.5 V to −0.5 V then back to 0.5 V using the potentiostat 13 configuration. The potentiostat controls the working electrode voltage relative to the reference electrode.
For antibiotic susceptibility experiments, the working electrode 6 was controlled at 0 VAg/AgCl. The current can also be measured and analyzed for determining resistance/susceptibility of pathogens to drugs (e.g., antibiotics) using other devices such as a multiplexer or any interface instrument that can receive one or more data inputs and forward it to an output for analysis and feedback. In particular, such one or more data inputs can be directed to a processor, signal processor, computer-based system, etc. and thereafter/correspondingly any such interface instrument can receive instructions from, such processing instruments as better detailed in the description for the embodiment of FIG. 14 below. It is also to be noted that any induced currents undergo a decision methodology that can be interpreted by such a configured processor, signal processor, computer-based system, etc. for aiding in the determination of antibiotic susceptibility/resistance, such as, the methodology better detailed in the description of FIG. 6 below.
Turning back to the discussion for FIG. 1B but also FIG. 1A, an initial baseline was established in the MH media, PMS, and antibiotic mixture for 50-60 min before inoculating the electrochemical cell with a bacteria cell 2. On placing the bacteria cell 2 (again see FIG. 1A) into the electrochemical cell 10, the bacteria cell 2 undergoes metabolic reactions and generates electrons 4 through metabolic processes, as was generally described above. […]
Tests disclosed in the example embodiments herein for the purpose of illustration were conducted with an inoculum of 0.1 OD600. A cell density equating to 0.1 OD600 was determined for each species by serial dilution. […] The colony forming units per mL (CFU/mL) were quantified using a drop plate method as known to those skilled in the art. […]

Compound | CLSI guidelines (resistance breakpoint) for the species [1] [µg/mL] | CLSI guidelines (resistance breakpoint) for the species [2] [µg/mL] | ASIn (antibiotic susceptibility index), single replicates ([3]; strain 34 (susceptible)) | average ASI20 (±SE) ([3]; strain 115 (resistant), imipenem 20× (80 μg/mL)) | ASIn (antibiotic susceptibility index), single replicates ([3]; strain 115 (resistant))
NC[C@H]1O[C@H](O[C@H]2[C@H](O)[C@@H](O[C@H]3O[C@H](CO)[C@@H](O)[C@H](N)[C@H]3O)[C@H](N)C[C@@H]2N)[C@H](N)C[C@@H]1O [Tobramycin, tobramycin] | 16 | 16 |  |  | 
C[C@@H](O)[C@H]1C(=O)N2C(C(=O)O)=C(SCCN=CN)C[C@H]12 [Imipenem, imipenem] |  |  | 0.56 and 0.88 and 0.67 and 0.58 | 0.28±0.08 | 0.32 and 0.47 and 0.18 and 0.17
